From patent US20110144348A1, “VOLTAGE-SENSITIVE DYE AND METHOD OF PREPARING THE SAME” (Electronics and Telecommunications Research Institute, priority 2009, published 2011)

Assays:
[1] = used in vitro to dye a cell; cited from earlier work
[2] = sensitivity of the VSD according to an external voltage (FIGS. 4A and 4B); conditions: electrical stimulation=500 mA; compared with Di-4-ANEPPS
Description: VSD according to an external voltage, and FIG. 4B is a diagram showing sensitivity of the VSD of the exemplary embodiment of the present invention according to an external voltage.
Referring to FIGS. 4A and 4B, sensitivities according to a voltage between the conventional VSD (Di-4-ANEPPS) in FIG. 4A and the VSD according to the exemplary embodiment of the present invention (ETRI-Di-8) in FIG. 4B are compared (electrical stimulation=500 mA).

In the case of `CCCCN(CCCC)c1ccc2cc(/C=C/c3cc[n+](CCCS(=O)(=O)[O-])cc3)ccc2c1` [Di-4-ANEPPS], the “sensitivity to an electric field” value [1] is listed as “approximately 10 % per 100 mV”.
With `O=S1(=O)CCCO1` [ETRI-Di-8] the “voltage sensitivity relative to Di-4-ANEPPS” value [2] was “three”.
